Data set [1] can be described thus: In vivo metabolism of [14C]COMPOUND I in Sprague-Dawley rats, single oral 5 mg/kg dose. As to conditions: for Chromatographic Distribution of Radioactivity in Pooled Plasma Samples: 5 mg/kg oral [14C]COMPOUND I. Also noted: species or system rat. As for the experimental part: Dose preparation, animal dosing, and specimen collection were performed at Wyeth Research, Collegeville, Pa. The vehicle contained 2% (w/v) polysorbate 80, NF and 0.5% (w/v) methylcellulose (4000 cps) in water. [^14C]COMPOUND I trisuccinate salt (36.6 mg) and non-labeled COMPOUND I trisuccinate salt (26.7 mg) were dissolved in 1 mL of ethanol and suspended in 35 mL of the vehicle with stirring. The target [^14C]COMPOUND I concentration was approximately 1 mg/mL as free base and 70 μCi/mL with a target specific activity of 70 μCi/mg. Three pre- and post-dose aliquots (100 μL) were taken for the determination of radiochemical purity, drug and radioactivity concentrations and specific activity (see below).
Male rats weighing from 323 to 354 g and female rats weighing from 270 to 317 g at the time of dosing were purchased from Charles River Laboratories (Wilmington, Mass.). Non-fasted rats were given a single 5 mg/kg (˜350 μCi/kg) dose of [^14C]COMPOUND I at a volume of 5.0 mL/kg via intragastric gavage. Three rats were dosed for each time point. Animals were provided Purina rat chow and water ad libitum, and were kept individually in metabolism cages.
Blood samples were collected at 1, 3, 6 and 24 hr from male rats and at 1 and 3 hr from female rats after dose administration by cardiac puncture into tubes containing EDTA as the anticoagulant and placing them on ice. Triplicate aliquots (50 μL) of whole blood were removed and plasma was immediately obtained from the remaining blood by centrifugation at 4° C. Whole brain samples were collected after saline perfusion at 1, 3, 6 and 24 hr post-dose from male rats and at 1 and 3 hr post-dose from female rats. Urine samples were collected on dry ice from male rats at intervals of 0-6 and 6-24 hr post-dose. Feces were collected from male rats at 0-24 hr post-dose at room temperature. The biological specimens and aliquots of the dose suspension were stored at approximately −70° C. until analysis.
Triplicate aliquots of diluted dose (20 μL), dose fractions (10 μL), and plasma (50 μL) and urine (100 μL) from individual rats were analyzed for radioactivity concentrations. Radioactivity determinations were made with a Tri-Carb Model 3100 TR liquid scintillation counter (LSC) (Perkin Elmer) using 5 mL of Ultima Gold as the scintillation fluid.
Brain and fecal samples from individual rats were weighed and homogenized in water at a volume-to-weight ratio of about 3:1 and 5:1, respectively, with a Polytron PT homogenizer at ice-cold temperature. Duplicate aliquots of blood (50 μL), brain homogenates (0.2 g) and fecal homogenates (0.2 g) were placed on Combusto-cones with Combusto-pads and allowed to dry overnight. Samples were combusted with a model 307 Tri-Carb Sample Oxidizer, equipped with an Oximate-80 Robotic Automatic Sampler (Perkin Elmer). The liberated ^14CO2 was trapped with Carbo-Sorb E carbon dioxide absorber, mixed with PermaFluor® E^+ liquid scintillation cocktail, and counted in a Tri-Carb Model 3100 TR/LL liquid scintillation counter (Perkin Elmer).
Plasma samples were pooled by equal volumes from three animals at each time point (1, 3, 6 and 24 hr for males; 1 and 3 hr for females). Aliquots of 2 mL of pooled plasma were mixed with 2 mL of acetonitrile, placed on ice for about 10 min, and then centrifuged at 4° C. The supernatant was transferred to a clean tube. The protein pellets were extracted two more times with 4 mL of acetonitrile. The supernatants from precipitation and extraction of each sample were pooled, mixed, and evaporated at 22° C. under nitrogen in a TurboVap LV evaporator (Caliper Life Sciences, Hopkinton, Mass.) to about 1.0 mL. The concentrated extract was centrifuged, the supernatant volume measured and the extraction efficiency was determined by analyzing duplicate 10 μL aliquots for radioactivity concentrations.

A short description of data set [2]: Metabolite profiling in liver microsomes and S9. Format: in vitro ADME, rat, dog, monkey, human. As to conditions: liver microsomes and S9, 10 μM COMPOUND I, 30 min; species letters not defined. As for the experimental part: Microsomal incubations for metabolite profiling were similar to those described above for intrinsic clearance determination (see Table 1). Aliquots of COMPOUND I (10 μL), dissolved in DMSO:methanol (1:9), were added to a 96-well plate containing phosphate buffer, and MgCl2 and the liver microsomes at 37° C. using the same automation apparatus as for the stability study described hereinabove. The reactions were initiated by the addition of the UDPGA and NADPH generating system. The final incubation volume for all samples was 1 mL and the length of incubation was 30 min. […] Three 250 μL aliquots were transferred to a 96-well plate containing 900 μL acetonitrile to precipitate the protein. […] The samples were then reconstituted in 150 μL of 20% methanol in water. The three aliquots for each sample were pooled and analyzed by LC/MS.
S9 incubation buffer and cofactors were chosen to allow N-acetylation and carbamoyl glucuronidation in addition to oxidative and glucuronidation pathways possible in liver microsomes. Incubations of sulfamethazine and SCA-136 with liver S9 were used as positive controls for N-acetylation and carbamoyl glucuronidation, respectively. Following a 30 min. incubation, 750 μL from each sample were added to 900 μL acetonitrile. Following centrifugation and evaporation of the supernatant, the samples were reconstituted in 450 μL of 20% methanol in water for analysis by HPLC/UV and LC/MS (see below).
The HPLC system used for mass spectrometric analysis was an Agilent 1100 HPLC (Agilent Technologies, Palo Alto, Calif.) equipped with a binary pump and a diode array UV detector. The UV detector was set to monitor 190-400 nm. Separations were accomplished on a Luna C18 column (150×2.1 mm, 5 μm) (Phenomenex Incorporated, Torrance, Calif.).
The mass spectrometer used for metabolite characterization was a Finnigan LCQ Deca ion trap mass spectrometer (Thermo Electron Corp.). […] Full scan and data dependent MS2 and MS3 mass spectra were recorded. Finnigan Xcalibur software (version 1.3) was used for control of equipment and recording of data from UV and LC/MS analyses.
Chromatographic profiles of COMPOUND I (10 μM) metabolites in incubations with liver microsomes in the presence of NADPH are presented in FIG. 1. Chromatographic profiles of COMPOUND I (10 μM) metabolites in incubations with liver microsomes in the presence of NADPH and UDPGA are presented in FIG. 2. Chromatographic profiles of COMPOUND I (10 μM) metabolites in incubations with liver S9 in the presence of NADPH, UDPGA and acetyl coenzyme A (CoA) are presented in FIG. 3. In incubations containing NADPH, UDPGA and acetyl CoA, fourteen Phase I metabolites (M1, M6, M8, M12, M13, M14, M15, M16, M17, M18, M20, M21, M22 and M23) and six Phase II metabolites (M2, M3, M5, M7, M9 and M10) were observed. In incubations without cofactors, no metabolites were observed.
LC/MS analysis was conducted on extracts of mouse, rat, monkey and human liver microsomes and S9. The mass spectral data for the characterized COMPOUND I metabolites are discussed below.
(In general: Liver microsomes are a subcellular fraction often used to study metabolism.)

Data set [3] can be described thus: Metabolite characterization in cryopreserved hepatocytes. As to conditions: hepatocyte incubations, 20 μM; R, rat; D, dog; H, human; Media = decomposition product observed in media control.
Description: Pooled male rat, dog, and mixed male and female human cryopreserved hepatocytes were used in this study. The cryopreserved hepatocytes (two vials from each species; three to five million viable cells per vial) were thawed in a 37° C. water bath with gentle shaking until the ice was almost melted. The suspensions from the two individual vials of the same species were immediately transferred to a 50 mL centrifuge tube containing pre-warmed thawing media at 37° C. with gentle handshaking to prevent the cells from settling. The cell suspension was centrifuged at 50 g for 5 min at 4° C. Supernatants were discarded and the pellets were resuspended in pre-warmed incubation media (8 mL) at 37° C. […] [^14C]COMPOUND I (20 μM) was incubated in a 12-well plate containing hepatocyte suspensions at 1.0 mL per well in duplicate (≧1 million viable cells/well) at 37° C. for 1 or 4 hr in the presence of 5% CO2:95% O2. Control incubations without hepatocytes were also run under the same conditions. Positive controls containing [^14C]7-ethoxycoumarin (100 μM) were also incubated under the same conditions, but only for 1 hr. At the end of the incubations, reactions were stopped by adding acetonitrile with 2% acetic acid (1 mL), mixed for 10 min, followed by centrifugation at 4000 rpm for 10 min at 4° C. Aliquots (50 μL) of supernatants were analyzed by HPLC with UV and radioactivity flow detection for metabolite profiling, and by LC/MS for metabolite identification as described in below. To determine extraction recovery, aliquots (20 μL) of supernatants were analyzed for radioactivity content utilizing a Packard Tri-Carb Model 3100 TR liquid scintillation counter and 5 mL of Ultima Gold.
The HPLC system used for mass spectrometric analysis was a Waters Alliance model 2695 HPLC system (Waters Corp). It was equipped with a built-in autosampler and a model 996 diode array UV detector. The UV detector was set to monitor 210-400 nm. The HPLC conditions were the same as those described hereinabove with the following exceptions. […]

From patent US20080262228A1, “Metabolites of 5-fluoro-8- quinoline and methods of preparation and uses thereof” (Wyeth, priority 2006, published 2008) come the findings set out here.

For `COc1cc(N2CCN(C3CCN(c4ccc(OC5OC(C(=O)O)C(O)C(O)C5O)c5cccnc45)CC3)CC2)c2ncccc2c1` (stereo not drawn) [Metabolite M5, Hydroxy desfluoro COMPOUND I glucuonide], the “Chromatographic Distribution of Radioactivity in Pooled Plasma Samples” value in data set [1] (female rats, 1 hr) worked out at 9.6%; in data set [1] (female rats, 3 hr) it was 16.2%; in data set [1] (male rats, 1 hr), 15.2%; in data set [1] (male rats, 3 hr), 17.1%; in data set [1] (male rats, 6 hr) it was 16.5%. In addition, the “percent of total plasma radioactivity” value in data set [1] (male and female rats, range over time points, 5 mg/kg oral) was 9.6-17.1%. Further, in data set [2], the “Species (in which the metabolite was characterized)” value is “R, D, M, H”.

On to `COc1cc(N2CCN(C3CCN(c4ccc(O)c5cccnc45)CC3)CC2)c2ncccc2c1` [Metabolite M18, Hydroxy desfluoro COMPOUND I], for which the Source result in data set [3] is “D (trace), H”. Moreover, the “Species (in which the metabolite was characterized)” value in data set [2] is “R, D, M, H”.
